PMC4506557 (Chemmedchem, 2014)

Columns and labels:
Assay type in all cases: biochemical
Settings in all cases: at 10 μM; single dose, triplicate
[1] = system: MMP-1; assay: MMP-1 fluorometric FRET protease assay
[2] = system: MMP-2; assay: MMP-2 fluorometric FRET protease assay
[3] = system: MMP-3; assay: MMP-3 fluorometric FRET protease assay
[4] = system: MMP-7; assay: MMP-7 fluorometric FRET protease assay
[5] = system: MMP-8; assay: MMP-8 fluorometric FRET protease assay
[6] = system: MMP-9; assay: MMP-9 fluorometric FRET protease assay
[7] = system: MMP-12; assay: MMP-12 fluorometric FRET protease assay
[8] = system: MMP-14; assay: MMP-14 fluorometric FRET protease assay

O=C(O)CCCOc1cccc(CNC(=O)C#Cc2cn(Cc3ccc(C(=O)O)cc3)c(=O)[nH]c2=O)c1 [Compound 4, 4-({5-[2-({[3-(3-carboxypropoxy)phenyl]methyl}carbamoyl)eth-1-yn-1-yl]-2,4-dioxo-1,2,3,4-tetrahydropyrimidin-1-yl}methyl)benzoic acid]
<50 % inhibition at 10 μM: MMP-1 inhibition [1] | MMP-2 inhibition [2] | MMP-3 inhibition [3] | MMP-7 inhibition [4] | MMP-8 inhibition [5] | MMP-9 inhibition [6] | MMP-12 inhibition [7] | MMP-14 inhibition [8]
